These results are taken from BindingDB's records for doi:10.1016/j.ejmech.2020.112529 (Jagiellonian University, 2020).

For the test, the target named is 5-HT2A receptor (Homo sapiens). Description: Displacement of [3H]-Ketanserin from human 5-HT2A receptor expressed in CHO-K1 cells incubated for 1 hr by microbeta counting method.
The compound `CC(Oc1ccccc1Cl)c1nc(N)nc(N2CCN(C)CC2)n1` (configuration not stated) registered a Ki of 1830 nM. Consider `CC(Oc1cccc(Cl)c1Cl)c1nc(N)nc(N2CCN(C)CC2)n1` (configuration not stated), for which affinity was put at a Ki of 268 nM. This Ki is about 6.8-fold lower than that of the compound before. For `CN1CCN(c2nc(N)nc(CCCOc3cccc(Cl)c3Cl)n2)CC1` the value was 649 nM; for `CCCCC(Oc1cc(Cl)ccc1Cl)c1nc(N)nc(N2CCN(C)CC2)n1` (configuration not stated), 431 nM. Turning to `CN1CCN(c2nc(N)nc(CCCOc3cc(Cl)ccc3Cl)n2)CC1`, the affinity, expressed as Ki, was 1460 nM. `CN1CCN(c2nc(N)nc(CCCOc3ccc(Cl)c(Cl)c3)n2)CC1` had a Ki of 906 nM. Against the preceding compound, the Ki is about 1.6-fold lower. The compound `CCCCC(Oc1cc(Cl)cc(Cl)c1)c1nc(N)nc(N2CCN(C)CC2)n1` (configuration not stated) showed a Ki of 839 nM.

The Ki is the dissociation constant of the complex between target and ligand, obtained from inhibition or displacement.
